12 molecules from patent US20160122340A1, “HISTONE DEACETYLASE INHIBITORS BASED ON DERIVATIVES OF TRICYCLIC POLYHYDROACRIDINE AND ANALOGS POSSESSING FUSED SATURATED FIVE-AND-SEVEN-MEMBERED RINGS” (QUIMATRYX, S.L., priority 2013, published 2016) can be followed below.

Data set [1] has as its target T1, Human HDAC1 (Homo sapiens, UniProt Q13547).
T1 construct: Full length with C-terminal GST tag, MW=79.9 kDa; GST (C); purchased BioMol SE-456; host or cells: baculovirus / Sf9 cells
The data set can be described thus: In vitro HDAC1 inhibition, fluorogenic peptide substrate. Type of data set: biochemical. The settings on record: No preincubation; read-out: IC50 (μM) HDAC-1. As to the method: (§1) In Vitro Inhibitory Activity of Histone Deacetylase: Human Isoforms HDAC1, 2, 3, 4, 5, 6, 7, 8, 9, 10 and 11 and HeLa Cell Line Nuclear Extract (IC50 Data)
(§2) All HDAC assays were performed using acetylated AMC-labeled peptide substrate: • Substrate for isoforms HDAC1, 2, 3, 6, 10, 11 and HeLa nuclear extract assays: Acetylated fluorogenic peptide from p53 residues 379-382 (RHKKAc). • Substrate for isoforms HDAC 4, 5, 7, 9: Fluorogenic Boc-L-Lys(ε-trifluoroacetyl)-AMC. • Substrate for HDAC8 assays: Acetylated fluorogenic peptide from p53 residues 379-382 (RHKAcKAc).
(§3) 50 μM of substrate peptide (see ‘substrate peptides’ section above) and an optimal concentration of the corresponding enzyme (see ‘enzymes’ section above) in the assay buffer and 1% final concentration of DMSO were incubated in the presence of gradient concentrations of inhibitors (10-dose IC50 mode with 3-fold serial dilution) at 30° C. for 2 h. The reactions were carried out in a 96-well microplate for fluorometry in a 50 μl reaction volume. After the deacetylation reaction, Fluor-de-Lys-Developer (BioMol Cat. # KI-105) was added to each well to digest the deacetylated substrate, thus producing the fluorescent signal. The reaction was allowed to develop for 45 minutes at 30° C. with 5% CO2; then the fluorescent signal was measured with an excitation wavelength at 360 nm and an emission wavelength at 460 nm in a microplate-reading fluorometer (GeminiXS; Molecular Devices, Sunnyvale, Calif.). A curve of Deacetylated Standard (Biomol, Cat. # KI-142; made from 100 μM with 1:2 dilution and 10-doses, 6 μl) allowed the conversion of fluorescent signal into micromoles of deacetylated product. All experiments were performed in triplicate. IC50 was calculated by fitting the experimental data to a dose-response curve. DMSO was used as negative control; Trichostatin A (Biomol Cat. # GR-309) was used as positive control inhibitor.

The target in data set [2] is T1, Human HDAC1. Described as above. Type of data set: biochemical. Conditions: 4 h preincubation; read-out: IC50 (μM) HDAC-1.
For data set [3], the target named is T2, Human HDAC2 (Homo sapiens, UniProt Q92769).
T2 construct: Full length with C-terminal His tag, MW=60 kDa; His (C); purchased BioMol SE-500; host or cells: baculovirus / Sf9 cells
T2 sequence (Q92769 whole entry): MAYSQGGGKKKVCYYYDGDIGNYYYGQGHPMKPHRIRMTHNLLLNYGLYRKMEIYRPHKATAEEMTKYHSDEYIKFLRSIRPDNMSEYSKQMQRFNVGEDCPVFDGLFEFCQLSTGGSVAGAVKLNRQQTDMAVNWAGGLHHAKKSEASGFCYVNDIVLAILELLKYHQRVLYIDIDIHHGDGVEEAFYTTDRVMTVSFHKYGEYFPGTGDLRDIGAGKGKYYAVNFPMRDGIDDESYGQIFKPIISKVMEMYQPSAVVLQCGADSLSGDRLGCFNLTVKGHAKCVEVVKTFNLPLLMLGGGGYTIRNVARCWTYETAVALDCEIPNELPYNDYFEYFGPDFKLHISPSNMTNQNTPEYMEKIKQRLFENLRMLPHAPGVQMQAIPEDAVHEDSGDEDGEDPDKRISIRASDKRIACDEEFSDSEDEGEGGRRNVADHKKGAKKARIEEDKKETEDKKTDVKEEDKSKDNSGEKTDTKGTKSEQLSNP
The data set can be described thus: In vitro HDAC2 inhibition, fluorogenic peptide substrate. Type of data set: biochemical. Conditions: read-out: IC50 (μM) HDAC-2. As for the experimental part:
as §1, §2, §3

The subject of data set [4] is T3, Nuclear Extract from HeLa Cells.
T3 construct: 25 ng/μl Nuclear Extract from HeLa Cells: Prepared by high salt extraction of HeLa nuclei (human cervical cancer cell line)
Nature of the data set: HeLa nuclear extract HDAC activity inhibition. Type of data set: biochemical, human. As to the method: as §1, §2
as §3, with “50 μM of substrate peptide (see ‘substrate peptides’ section above) and an optimal concentration of the corresponding enzyme (see ‘enzymes’ section above) in the assay buffer and 1% final concentration of DMSO were incubated in the presence of gradient concentrations of inhibitors (10-dose IC50 mode with 3-fold serial dilution) at 30° C. for 2 h.” left out

Data set [5] addresses T4, Human HDAC6 (Homo sapiens, UniProt Q9UBN7).
T4 construct: Full length with N-terminal GST tag, MW=159 kDa; GST (N); purchased BioMol SE-508; host or cells: baculovirus / Sf9 cells
T4 sequence (Q9UBN7 1-1215): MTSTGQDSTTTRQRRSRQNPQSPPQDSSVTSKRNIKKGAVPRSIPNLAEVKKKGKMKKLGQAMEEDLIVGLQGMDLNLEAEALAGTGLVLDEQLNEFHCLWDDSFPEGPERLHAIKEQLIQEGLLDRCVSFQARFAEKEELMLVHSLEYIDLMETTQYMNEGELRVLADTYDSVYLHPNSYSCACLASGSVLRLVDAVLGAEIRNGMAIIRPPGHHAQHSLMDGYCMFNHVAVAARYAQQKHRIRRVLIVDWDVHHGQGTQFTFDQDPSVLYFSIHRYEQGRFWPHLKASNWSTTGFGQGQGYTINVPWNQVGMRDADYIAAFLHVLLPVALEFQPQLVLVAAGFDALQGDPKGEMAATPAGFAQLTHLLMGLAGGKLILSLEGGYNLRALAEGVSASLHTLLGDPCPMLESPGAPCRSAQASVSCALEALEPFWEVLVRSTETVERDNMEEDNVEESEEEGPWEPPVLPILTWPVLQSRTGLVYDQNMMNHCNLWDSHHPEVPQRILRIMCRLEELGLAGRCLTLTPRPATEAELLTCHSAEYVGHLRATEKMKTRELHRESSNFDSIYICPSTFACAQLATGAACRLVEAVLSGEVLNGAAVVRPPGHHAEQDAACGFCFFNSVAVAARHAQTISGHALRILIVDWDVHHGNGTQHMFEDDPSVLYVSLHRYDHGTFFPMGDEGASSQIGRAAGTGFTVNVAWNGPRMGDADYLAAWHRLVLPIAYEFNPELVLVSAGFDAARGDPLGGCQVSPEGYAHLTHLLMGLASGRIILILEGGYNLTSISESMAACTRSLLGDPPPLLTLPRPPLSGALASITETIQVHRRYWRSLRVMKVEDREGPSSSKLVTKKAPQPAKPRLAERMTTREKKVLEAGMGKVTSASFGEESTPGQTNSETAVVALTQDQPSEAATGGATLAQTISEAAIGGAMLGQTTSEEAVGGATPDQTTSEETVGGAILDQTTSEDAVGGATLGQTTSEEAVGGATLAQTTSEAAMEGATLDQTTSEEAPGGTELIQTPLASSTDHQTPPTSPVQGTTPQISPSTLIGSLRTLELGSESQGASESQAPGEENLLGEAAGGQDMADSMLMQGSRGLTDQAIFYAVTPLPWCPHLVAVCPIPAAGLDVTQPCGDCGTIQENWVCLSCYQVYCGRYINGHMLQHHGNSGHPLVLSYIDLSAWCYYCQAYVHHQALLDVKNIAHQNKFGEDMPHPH
The data set can be described thus: In vitro HDAC6 inhibition, fluorogenic peptide substrate. Type of data set: biochemical. Conditions: No preincubation; read-out: IC50 (μM) HDAC-6. As for the experimental part: as §1, §2, §3

Read-outs that look alike come from different tables or passages of the source.

T1 sequence (Q13547 whole entry): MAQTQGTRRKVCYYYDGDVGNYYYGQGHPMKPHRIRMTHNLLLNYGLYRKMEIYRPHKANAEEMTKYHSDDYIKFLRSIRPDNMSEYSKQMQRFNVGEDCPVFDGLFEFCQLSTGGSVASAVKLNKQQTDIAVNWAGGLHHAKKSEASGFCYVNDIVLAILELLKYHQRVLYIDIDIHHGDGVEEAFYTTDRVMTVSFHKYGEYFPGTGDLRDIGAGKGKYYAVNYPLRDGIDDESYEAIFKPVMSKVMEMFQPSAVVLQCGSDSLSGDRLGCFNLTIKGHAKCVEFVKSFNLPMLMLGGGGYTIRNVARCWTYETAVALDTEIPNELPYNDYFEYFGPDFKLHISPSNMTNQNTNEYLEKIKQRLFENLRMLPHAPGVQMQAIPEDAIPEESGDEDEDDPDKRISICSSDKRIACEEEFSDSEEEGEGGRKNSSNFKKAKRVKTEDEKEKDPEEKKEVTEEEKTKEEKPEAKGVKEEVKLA

In general, IC50 refers to the concentration needed to halve the response being measured. What is called melting point is the temperature, or range, at which the solid turns liquid. As to `CC(C)(C)c1ccc(N)c(NC(=O)CCCCCCNc2c3c(nc4ccccc24)CCCC3)c1` [Example 14, N-[2-amino-5-(tert-butyl)phenyl]-7-[(1,2,3,4-tetrahydroacridin-9-yl)amino]heptanamide], the melting point lay within 75 to 76 °C. Further, in data set [1], the IC50 was greater than 50 µM. Further, the IC50 in data set [2] is greater than 50 µM. For the same molecule, the IC50 in data set [3] (4 h preincubation) was greater than 50 µM. In data set [3] (No preincubation), the IC50 was greater than 50 µM. Besides, in data set [4] (4 h preincubation), the IC50 is greater than 50 µM. In data set [4] (No preincubation), this molecule displayed an IC50 greater than 50 µM.

The molecule `Nc1ncc(-c2ccccc2)cc1NC(=O)CCCCCCNc1c2c(nc3ccccc13)CCCC2` [Example 20, N-(2-amino-5-phenylpyridin-3-yl)-7-[(1,2,3,4-tetrahydroacridin-9-yl)amino]heptanamide] displayed a melting point of 49 to 50 °C. In data set [1], the IC50 was 594 µM. In data set [2], the IC50 is greater than 50 µM. In addition, in data set [3] (4 h preincubation), the IC50 was greater than 50 µM. In addition, the IC50 in data set [3] (No preincubation) was greater than 50 µM. For the same molecule, the IC50 in data set [4] (4 h preincubation) is 109 µM. Further, the IC50 in data set [4] (No preincubation) was greater than 50 µM.

For the molecule `Nc1ccc(-c2ccccc2)cc1NC(=O)CCCCCNc1c2c(nc3ccccc13)CCCC2` [Example 16, N-(4-Amino-[1,1′-biphenyl]-3-yl)-6-[(1,2,3,4-tetrahydroacridin-9-yl)amino]hexanamide], the melting point was 75 to 76 °C.

`Cc1ccc(N)c(NC(=O)CCCCCCNc2c3c(nc4ccccc24)CCCC3)c1` [Example 13, N-(2-amino-5-methylphenyl)-7-((1,2,3,4-tetrahydroacridin-9-yl)amino)heptanamide] yielded a melting point of 204 to 205 °C. In addition, the IC50 in data set [1] was found to be 57.3 µM. For the same molecule, in data set [2], the IC50 was greater than 50 µM. The IC50 in data set [3] (4 h preincubation) came out at 54.3 µM. For the same molecule, the IC50 in data set [3] (No preincubation) came to 62.9 µM. In addition, the 50% inhibitory concentration (IC50) in data set [5] is greater than 50 µM.

Turning to `Nc1ccc(-c2cccnc2)cc1NC(=O)CCCCCCNc1c2c(nc3ccccc13)CCCC2` [Example 21, N-[2-amino-5-(pyridin-3-yl)phenyl]-7-[(1,2,3,4-tetrahydroacridin-9-yl)amino]heptanamide], the IC50 in data set [1] was found to be 3.97 µM; in data set [2], 8.55 µM; in data set [3] (4 h preincubation), 2.79 µM; in data set [3] (No preincubation), 3.37 µM; in data set [4] (4 h preincubation) it was 30.7 µM; in data set [4] (No preincubation) it was 78.1 µM.

`Nc1ccc(-c2ccc3ccccc3c2)cc1NC(=O)CCCCCCNc1c2c(nc3ccccc13)CCCC2` [Example 19, N-[2-amino-5-(naphthalen-2-yl)phenyl]-7-[(1,2,3,4-tetrahydroacridin-9-yl)amino]heptanamide] gave a melting point of 100 to 101 °C. Besides, the IC50 in data set [1] was greater than 50 µM. Also, the IC50 in data set [2] amounted to 139 µM. The IC50 in data set [3] (4 h preincubation) was 72.7 µM. Moreover, the IC50 in data set [3] (No preincubation) is greater than 50 µM. The same molecule gave an IC50 in data set [4] (4 h preincubation) of 39.3 µM. Further, the IC50 in data set [4] (No preincubation) stood at 17.7 µM.

`O=C(CCCCCCNc1c2c(nc3c(O)cccc13)CCCC2)NO` [Example 6, N-hydroxy-7-[(5-hydroxy-1,2,3,4-tetrahydroacridin-9-yl)amino]heptanamide] had a melting point of 73 °C.

In the case of `O=C(NO)c1ccc(CNc2c3c(nc4ccccc24)CCCC3)cc1` [Example 9, N-hydroxy-4-{[(1,2,3,4-tetrahydroacridin-9-yl)amino]methyl}benzamide], the melting point lay within 204 to 205 °C. For the same molecule, the IC50 in data set [4] was found to be 0.9 µM.

The molecule `Nc1ccc(-c2ccccc2)cc1NC(=O)CCCCCCNc1c2c(nc3ccccc13)CCCC2` [Example 15, N-(4-amino-[1,1′-biphenyl]-3-yl)-7-[(1,2,3,4-tetrahydroacridin-9-yl)amino]heptanamide] showed a melting point of 101 to 102 °C. Moreover, the IC50 in data set [1] stood at 1.26 µM. Also, in data set [2], the IC50 worked out at 1.48 µM. Moreover, the IC50 in data set [3] (4 h preincubation) is 0.079 µM. The IC50 in data set [3] (No preincubation) came out at 1.7 µM. Further, the IC50 in data set [5] is 13.2 µM. The molecule further showed an IC50 in data set [4] (4 h preincubation) of 3.99 µM. In addition, the IC50 in data set [4] (No preincubation) is 4.68 µM.

Consider `Cc1cccc(-c2ccc(N)c(NC(=O)CCCCCCNc3c4c(nc5ccccc35)CCCC4)c2)c1` [Example 17, N-(4-amino-3′-methyl-[1,1′-biphenyl]-3-yl)-7-[(1,2,3,4-tetrahydroacridin-9-yl)amino]heptanamide], for which the melting point lay in the range of 53 to 54 °C. In addition, the IC50 in data set [1] worked out at 250 µM. Besides, in data set [2], the IC50 came out at 118 µM. In data set [3] (4 h preincubation), the IC50 was 76 µM. For the same molecule, the IC50 in data set [3] (No preincubation) was 188 µM. Moreover, in data set [4] (4 h preincubation), the IC50 was found to be 73.6 µM. In addition, the IC50 in data set [4] (No preincubation) was 84.1 µM.

`CC(C)(C)c1ccc(-c2ccc(N)c(NC(=O)CCCCCCNc3c4c(nc5ccccc35)CCCC4)c2)cc1` [Example 18, N-{4-amino-4′-(tert-butyl)-[1,1′-biphenyl]-3-yl}-7-[(1,2,3,4-tetrahydroacridin-9-yl)amino]heptanamide] yielded a melting point of 55 to 56 °C. Also, the IC50 in data set [1] was 46.7 µM. For the same molecule, the IC50 in data set [2] was 48.1 µM. Further, the IC50 in data set [3] (4 h preincubation) stood at 65.9 µM. Besides, in data set [3] (No preincubation), the IC50 is greater than 50 µM. Besides, 25.5 µM corresponded to half-maximal inhibition in data set [4] (4 h preincubation) (IC50). The same molecule returned an IC50 in data set [4] (No preincubation) of 429 µM.

Molecule `Cc1ccc(NC(=O)CCCCCCNc2c3c(nc4ccccc24)CCCC3)c(N)c1` [Example 12, N-(2-amino-4-methylphenyl)-7-[(1,2,3,4-tetrahydroacridin-9-yl)amino]heptanamide] gave a melting point of 63 to 64 °C. Besides, the IC50 in data set [1] is greater than 50 µM. In addition, the IC50 in data set [3] (No preincubation) is greater than 50 µM. Moreover, in data set [5], the IC50 was greater than 50 µM.
